Test results taken from ChEMBL document CHEMBL5137080, “Discovery of Novel 7-Hydroxy-5-oxo-4,5-dihydrothieno[3,2-b]pyridine-6-carboxamide Derivatives with Potent and Selective Antifungal Activity against Cryptococcus Species” (J Med Chem, 2022).
Active and inactive are the calls of the source. The rule behind the calls is not given here.

How the values were obtained:
[1] = tested on: Cryptococcus neoformans; test: Antifungal activity against Cryptococcus neoformans clinical isolate HN2-40 assessed as fungal growth inhibition incubated for 72 hrs in presence of Fluconazole by broth microdilution method; format: functional
[2] = tested on: Cryptococcus deuterogattii; test: Antifungal activity against Cryptococcus gattii WM178 assessed as fungal growth inhibition incubated for 72 hrs in presence of Fluconazole by broth microdilution method; format: functional, Cryptococcus gattii species complex
[3] = tested on: Cryptococcus neoformans; test: Synergistic antifungal activity against Cryptococcus neoformans clinical isolate HN17 assessed as fractional inhibitory concentration index incubated for 72 hrs in presence of Fluconazole by broth microdilution method; format: functional
[4] = tested on: Cryptococcus neoformans; test: Synergistic antifungal activity against Cryptococcus neoformans clinical isolate 444 assessed as fractional inhibitory concentration index incubated for 72 hrs in presence of Fluconazole by broth microdilution method; format: functional
[5] = tested on: Candida albicans; test: Antifungal activity against Candida albicans SC5314 assessed as fungal growth inhibition incubated for 48 hrs in presence of Fluconazole by broth microdilution method; format: functional
[6] = tested on: Cryptococcus neoformans; test: Antifungal activity against Cryptococcus neoformans clinical isolate HN2 assessed as fungal growth inhibition incubated for 72 hrs in presence of Fluconazole by broth microdilution method; format: functional
[7] = tested on: Cryptococcus neoformans; test: Synergistic antifungal activity against Cryptococcus neoformans clinical isolate HN19 assessed as fractional inhibitory concentration index incubated for 72 hrs in presence of Fluconazole by broth microdilution method; format: functional
[8] = Half life in Sprague-Dawley rat at 5 mg/kg,po by LC-MS/MS analysis; format: ADME, organism-based; settings: in vivo
[9] = tested on: Cryptococcus neoformans; test: Antifungal activity against Cryptococcus neoformans clinical isolate HN19 assessed as fungal growth inhibition incubated for 72 hrs in presence of Fluconazole by broth microdilution method; format: functional
[10] = Oral bioavailability in Sprague-Dawley rat at 5 mg/kg by LC-MS/MS analysis; format: ADME, organism-based; settings: in vivo
[11] = tested on: Cryptococcus neoformans; test: Synergistic antifungal activity against Cryptococcus neoformans clinical isolate HN2 assessed as fractional inhibitory concentration index incubated for 72 hrs in presence of Fluconazole by broth microdilution method; format: functional
[12] = tested on: Cryptococcus neoformans; test: Antifungal activity against Cryptococcus neoformans clinical isolate BJ3 assessed as fungal growth inhibition incubated for 72 hrs in presence of Fluconazole by broth microdilution method; format: functional
[13] = Cytotoxicity against human Caco-2 cells assessed as cell growth inhibition incubated for 24 hrs by CCK-8 assay; format: toxicity, cell-based
[14] = tested on: Candida parapsilosis; test: Antifungal activity against Candida parapsilosis ATCC22019 assessed as fungal growth inhibition incubated for 48 hrs by broth microdilution method; format: functional; settings: Lodderomyces parapsilosis
[15] = tested on: Cryptococcus deuterogattii; test: Antifungal activity against Cryptococcus gattii WM178 assessed as reduction on fungal growth at 8 ug/ml incubated for 48 hrs by plate reader assay; format: functional, organism-based; settings: Cryptococcus gattii species complex, dose 8.0 µg/ml
[16] = MRT (0 to t) in Sprague-Dawley rat at 5 mg/kg,po by LC-MS/MS analysis; format: ADME, organism-based; settings: in vivo
[17] = tested on: Cryptococcus gattii species complex; test: Antifungal activity against Cryptococcus gattii clinical isolate SCZ20031 assessed as fungal growth inhibition incubated for 72 hrs in presence of Fluconazole by broth microdilution method; format: functional
[18] = Tmax in Sprague-Dawley rat at 5 mg/kg,po by LC-MS/MS analysis; format: ADME, organism-based; settings: in vivo
[19] = tested on: Cryptococcus gattii species complex; test: Synergistic antifungal activity against Cryptococcus gattii clinical isolate SCZ20031 assessed as fractional inhibitory concentration index incubated for 72 hrs in presence of Fluconazole by broth microdilution method; format: functional
[20] = tested on: Cryptococcus neoformans; test: Synergistic antifungal activity against Cryptococcus neoformans H99 assessed as fractional inhibitory concentration index incubated for 72 hrs in presence of Fluconazole by broth microdilution method; format: functional
[21] = tested on: Cryptococcus neoformans; test: Antifungal activity against Cryptococcus neoformans clinical isolate SH68 assessed as fungal growth inhibition incubated for 72 hrs in presence of Fluconazole by broth microdilution method; format: functional
[22] = tested on: Cryptococcus neoformans; test: Synergistic antifungal activity against Cryptococcus neoformans clinical isolate HN2 assessed as fractional inhibitory concentration index incubated for 72 hrs in presence of P163-0892 by broth microdilution method; format: functional
[23] = tested on: Candida albicans; test: Antifungal activity against Candida albicans SC5314 assessed as fungal growth inhibition incubated for 48 hrs in presence of P163-0892 by broth microdilution method; format: functional
[24] = tested on: Cryptococcus neoformans; test: Synergistic antifungal activity against Cryptococcus neoformans clinical isolate BJ3 assessed as fractional inhibitory concentration index incubated for 72 hrs in presence of P163-0892 by broth microdilution method; format: functional
[25] = tested on: Cryptococcus gattii species complex; test: Antifungal activity against Cryptococcus gattii clinical isolate SCZ20024 assessed as fungal growth inhibition incubated for 72 hrs in presence of P163-0892 by broth microdilution method; format: functional
[26] = tested on: Cryptococcus neoformans; test: Antifungal activity against Cryptococcus neoformans clinical isolate HN2 assessed as fungal growth inhibition incubated for 72 hrs in presence of P163-0892 by broth microdilution method; format: functional
[27] = tested on: Cryptococcus neoformans; test: Synergistic antifungal activity against Cryptococcus neoformans clinical isolate 444 assessed as fractional inhibitory concentration index incubated for 72 hrs in presence of P163-0892 by broth microdilution method; format: functional
[28] = tested on: Pichia kudriavzevii; test: Synergistic antifungal activity against Candida krusei ATCC2340 assessed as fractional inhibitory concentration index incubated for 48 hrs in presence of P163-0892 by broth microdilution method; format: functional
[29] = tested on: Cryptococcus neoformans; test: Synergistic antifungal activity against Cryptococcus neoformans clinical isolate 443 assessed as fractional inhibitory concentration index incubated for 72 hrs in presence of P163-0892 by broth microdilution method; format: functional
[30] = tested on: Cryptococcus gattii species complex; test: Synergistic antifungal activity against Cryptococcus gattii clinical isolate SCZ20031 assessed as fractional inhibitory concentration index incubated for 72 hrs in presence of P163-0892 by broth microdilution method; format: functional
[31] = tested on: Nakaseomyces glabratus; test: Synergistic antifungal activity against Candida glabrata ATCC1182 assessed as fractional inhibitory concentration index incubated for 48 hrs in presence of P163-0892 by broth microdilution method; format: functional
[32] = tested on: Nakaseomyces glabratus; test: Antifungal activity against Candida glabrata ATCC1182 assessed as fungal growth inhibition incubated for 48 hrs in presence of P163-0892 by broth microdilution method; format: functional
[33] = tested on: Cryptococcus neoformans; test: Synergistic antifungal activity against Cryptococcus neoformans H99 assessed as fractional inhibitory concentration index incubated for 72 hrs in presence of P163-0892 by broth microdilution method; format: functional
[34] = tested on: Cryptococcus neoformans; test: Antifungal activity against Cryptococcus neoformans H99 infected in Wax moth larvae assessed as reduction on fungal burden at 10 mg/kg measured after 9 days in presence of P163-0892 by 10 fold serial dilution method; format: functional; settings: time 9 day
[35] = tested on: Cryptococcus neoformans; test: Synergistic antifungal activity against Cryptococcus neoformans clinical isolate HN20 assessed as fractional inhibitory concentration index incubated for 72 hrs in presence of P163-0892 by broth microdilution method; format: functional
[36] = tested on: Cryptococcus neoformans; test: Antifungal activity against Cryptococcus neoformans clinical isolate 444 assessed as fungal growth inhibition incubated for 72 hrs in presence of P163-0892 by broth microdilution method; format: functional
[37] = tested on: Candida tropicalis; test: Synergistic antifungal activity against Candida tropicalis ATCC20026 assessed as fractional inhibitory concentration index incubated for 48 hrs in presence of P163-0892 by broth microdilution method; format: functional
[38] = tested on: Cryptococcus neoformans; test: Antifungal activity against Cryptococcus neoformans H99 infected in Wax moth larvae assessed as survival rate at 10 mg/kg measured after 9 days in presence of P163-0892 by Kaplan-Meier method; format: functional; settings: H99, 216 h, time 9 day

For `CCCCNC(=O)c1c(O)c2sccc2n(Cc2ccccc2)c1=O`, which MIC [1] is on record?
Its MIC is 0.0313 µg/mL.

And the MIC [2]?
The MIC was 0.0625 µg/mL.

What about the “fractional inhibitory concentration index (FICI)” value [3] of the same compound?
The value was 0.156.

And the “fractional inhibitory concentration index (FICI)” value [4]?
Its value is 0.156.

What about the MIC [5] of the same compound?
The MIC was 1 µg/mL.

And the MIC [6]?
The MIC was 0.0313 µg/mL.

What about the “fractional inhibitory concentration index (FICI)” value [7] of the same compound?
The value was 0.281.

And the half-life [8]?
Its half-life is 15.3 h.

What about the MIC [9] of the same compound?
Its MIC is 0.0313 µg/mL.

And the bioavailability [10]?
Its bioavailability is 0.8%.

What about the “fractional inhibitory concentration index (FICI)” value [11] of the same compound?
Its value is 0.188.

What about the MIC [12] of the same compound?
The MIC was 0.0313 µg/mL.

And the IC50 at 24 h [13]?
The IC50 at 24 h was greater than 256 µg/mL.

What about the MIC [14] of the same compound?
The MIC was greater than 64 µg/mL.

What about the Activity [15] of the same compound?
Its Activity is “Active”.

What about the MRT last [16] of the same compound?
The MRT last was 3.83 h.

What about the MIC [17] of the same compound?
Its MIC is 0.125 µg/mL.

What about the Tmax [18] of the same compound?
The Tmax was 3.17 min.

And the “fractional inhibitory concentration index (FICI)” value [19]?
The value was 0.25.

What about the “fractional inhibitory concentration index (FICI)” value [20] of the same compound?
Its value is 0.375.

What about the MIC [21] of the same compound?
Its MIC is 0.0625 µg/mL.

With `OC(Cn1cncn1)(Cn1cncn1)c1ccc(F)cc1F` [FLUCONAZOLE] as the compound, how does the “fractional inhibitory concentration index (FICI)” value [22] read?
The value was 0.188.

And the MIC [23]?
Its MIC is 1 µg/mL.

And the “fractional inhibitory concentration index (FICI)” value [24]?
The value was 0.188.

What about the MIC [25] of the same compound?
Its MIC is 1 µg/mL.

And the MIC [26]?
Its MIC is 0.25 µg/mL.

And the “fractional inhibitory concentration index (FICI)” value [27]?
The value was 0.156.

What about the “fractional inhibitory concentration index (FICI)” value [28] of the same compound?
The value was 0.563.

And the “fractional inhibitory concentration index (FICI)” value [29]?
The value was 0.156.

What about the “fractional inhibitory concentration index (FICI)” value [30] of the same compound?
Its value is 0.25.

And the “fractional inhibitory concentration index (FICI)” value [31]?
The value was 0.625.

And the MIC [32]?
Its MIC is 4 µg/mL.

What about the “fractional inhibitory concentration index (FICI)” value [33] of the same compound?
Its value is 0.375.

And the Activity [34]?
The Activity was 4.8 log10CFU/g.

And the “fractional inhibitory concentration index (FICI)” value [35]?
Its value is 0.375.

What about the MIC [36] of the same compound?
The MIC was 0.5 µg/mL.

And the “fractional inhibitory concentration index (FICI)” value [37]?
The value was 0.516.

What about the survival at 10 mg/kg [38] of the same compound?
Its survival at 10 mg/kg is 65%.
